The values below come from patent US20240307374A1, “FORMULATION OF FURIN INHIBITOR FOR INHALATION” (BP ASSET V, INC., priority 2021, published 2024).

Read-outs that look alike come from different tables or passages of the source.

Common to all, as to type: physicochemical
One data set can be described thus: Grinding stability. Conditions: ~30 mg ground manually in a mortar for about 5 minutes.
Data set [1] in a line: Complexation stability constant test: solubility in SBECD solutions. Conditions: for solubility at 24 h: thermodynamic from solid. Here is the method:
Additional solid was added into the sample to generate suspension if clear solution was obtained. The suspension was equilibrated via stirring (1000 rpm) for 24 hours. The suspension was centrifuged to obtain precipitate and supernatants. Solubility and pH was determined for the supernatants after filtration, and XRPD was obtained for the isolated precipitate.

A short description of data set [2]: In situ salt solubility test (citric acid, fumaric acid). Conditions: for solubility: filtrate, read-out: Concentration (in situ salt solubility). From the text:
The sample was almost clear (little solid was observed) and filtered for a solubility test.

The nature of another data set: Solid state stability. Details: key to FC (form change): N: The form was not changed. Conditions: for Purity: initial purity 99.62%. The protocol: Approximately 30 mg of each solid sample was added to an HPLC vial (sealed by Parafilm© and poked with several pinholes) and then stored at 25° C./60% RH, 40° C./75% RH and 60° C. for 28 days.
After 1/3/7/14/28 days storage, solids were taken out for HPLC and XRPD to evaluate chemical and physical stability, respectively.

The mark [3] stands for this setting: 1.1 equiv. of citric acid in water.
Where [4] appears, read: 1.1 equivalent of fumaric acid in water.

For the molecule `CC(=O)NCC1CCN(Cc2cc(Oc3ccc(N4CCN(CCC(=O)O)CC4)nc3)nc(-c3cc(Cl)cc(Cl)c3)c2)CC1` [Freeform Type A], the “crystallinity after grinding (XRPD)” value in the data set “Grinding stability” is reported as “decreased after grinding”.

For the molecule `CC(=O)NCC1CCN(Cc2cc(Oc3ccc(N4CCN(CCC(=O)O)CC4)nc3)nc(-c3cc(Cl)cc(Cl)c3)c2)CC1` [Freeform Type D], the solubility at 24 h in data set [1] (5% (w/w) SBECD solution, aqueous with cosolvent or surfactant or cyclodextrin, 5% (w/w) SBECD, RT, 24 hours, final pH 7.8, read-out: Solubility) was determined as 2610 µg/mL; in data set [1] (5% (w/w) SBECD solution, pH 7.8, aqueous with cosolvent or surfactant or cyclodextrin, 5% SBECD (54.23 mmol/L), read-out: API Solubility), 4.07 mM; in data set [1] (10% (w/w) SBECD solution, aqueous with cosolvent or surfactant or cyclodextrin, 10% (w/w) SBECD, RT, 24 hours, final pH 7.9, read-out: Solubility), 6470 µg/mL; in data set [1] (10% (w/w) SBECD solution, pH 7.9, aqueous with cosolvent or surfactant or cyclodextrin, 10% SBECD (108.46 mmol/L), read-out: API Solubility), 10.1 mM; in data set [1] (15% (w/w) SBECD solution, aqueous with cosolvent or surfactant or cyclodextrin, 15% (w/w) SBECD, RT, 24 hours, final pH 7.9, read-out: Solubility) it was 8810 µg/mL; in data set [1] (15% (w/w) SBECD solution, pH 7.9, aqueous with cosolvent or surfactant or cyclodextrin, 15% SBECD (162.70 mmol/L), read-out: API Solubility), 13.7 mM. Also, the solubility at 24 h in data set [1] (20% (w/w) SBECD solution, aqueous with cosolvent or surfactant or cyclodextrin, 20% (w/w) SBECD, RT, 24 hours, final pH 7.9, read-out: Solubility) came to 9350 µg/mL; in data set [1] (20% (w/w) SBECD solution, pH 7.9, aqueous with cosolvent or surfactant or cyclodextrin, 20% SBECD (216.93 mmol/L), read-out: API Solubility), 14.6 mM; in data set [1] (25% (w/w) SBECD solution, aqueous with cosolvent or surfactant or cyclodextrin, 25% (w/w) SBECD, RT, 24 hours, final pH 7.9, read-out: Solubility) it was 11000 µg/mL; in data set [1] (25% (w/w) SBECD solution, pH 7.9, aqueous with cosolvent or surfactant or cyclodextrin, 25% SBECD (271.16 mmol/L), read-out: API Solubility) it was 17.1 mM. Besides, in data set [1] (SBECD solutions, 24 hours), the “form change during solubility evaluation (XRPD)” value is recorded as “No form change”. For the same molecule, the “complexation stability constant K^1:1” value in data set [1] (SBECD, Higuchi-Connors phase-solubility method) was 3831 M⁻¹. Also, the “HPLC purity of filtrates” value is 99.9% Area % in data set [2] (setting [3]) and 99.8% Area % in data set [2] (setting [4]). The pH came out at 3.4 in data set [2] (setting [3]) and 4.0 in data set [2] (setting [4]). Besides, the solubility was 39300 µg/mL in data set [2] (water with 1.1 equivalent of citric acid, pH 3.4, thermodynamic from solid, 1.1 equiv. of citric acid in water) and 1100 µg/mL in data set [2] (water with 1.1 equivalent of fumaric acid, pH 4, thermodynamic from solid, 1.1 equivalent of fumaric acid in water). For the same molecule, the “degradation or form change (HPLC, XRPD)” value in “Solid state stability” (25° C./60% RH, 40° C./75% RH and 60° C. for 28 days) is recorded as “No significant degradation or form change”. Besides, the “FC (form change)” value is “N” in “Solid state stability” (25° C./60% RH, 28 days); “N” in “Solid state stability” (40° C./75% RH, 1 day); “N” in the data set “Solid state stability” (40° C./75% RH, 3 days); “N” in “Solid state stability” (40° C./75% RH, 7 days); “N” in “Solid state stability” (40° C./75% RH, 14 days); “N” in the data set “Solid state stability” (40° C./75% RH, 28 days). Moreover, the “FC (form change)” value in “Solid state stability” (60° C., 1 day) is reported as “N”; in the data set “Solid state stability” (60° C., 3 days), “N”; in “Solid state stability” (60° C., 7 days) it was “N”; in “Solid state stability” (60° C., 14 days) it was “N”; in the data set “Solid state stability” (60° C., 28 days), “N”. The Purity is given as 99.6 area % in the data set “Solid state stability” (25° C./60% RH, 28 days); 99.69 area % in “Solid state stability” (40° C./75% RH, 1 day); 99.56 area % in the data set “Solid state stability” (40° C./75% RH, 3 days); 99.59 area % in “Solid state stability” (40° C./75% RH, 7 days); 99.69 area % in “Solid state stability” (40° C./75% RH, 14 days); 99.73 area % in “Solid state stability” (40° C./75% RH, 28 days). Further, the Purity came out at 99.74 area % in “Solid state stability” (60° C., 1 day); 99.57 area % in the data set “Solid state stability” (60° C., 3 days); 99.51 area % in “Solid state stability” (60° C., 7 days); 99.62 area % in “Solid state stability” (60° C., 14 days); 99.66 area % in “Solid state stability” (60° C., 28 days).
